The record followed here is patent publication US5958947A, “DNA-affinic hypoxia selective cytotoxins” (priority 1996, dated 1999).

Data set [1] in a line: Partition coefficient in octanol/water. The format is physicochemical. As to the method:
The partition coefficient of the hypoxia selective cytotoxins of the present invention were determined by the method of T. Fujita et al., J. Am. Chem. Soc., 86, 5175-5180 (1964), incorporated herein by reference.

The test system of data set [2] is V79 Chinese hamster lung cells. As to the kind of experiment: Radiosensitization of V79 cells. The format is cell-based. The following applies: for maximum SER value: hypoxic V79 cells, 100 μM for THNLA-1, non-toxic concentrations for others. On the procedure:
(§1) Samples of V79 Chinese hamster lung cells used in the following experiments were prepared as follows. V79 cells, exponentially growing as monolayer cultures in RPMI 1640 medium (Mediatech) supplemented with 10% fetal calf serum, were trypsinized, centrifuged for 5 min, harvested, then suspended in 25 ml Erlenmeyer flasks fitted with rubber caps at 5×10^5 cells/ml (5 ml). Individual flasks either were shaken (100 rpm) at 37° C. under aerobic conditions or made hypoxic by gassing with a 95% N2 (nitrogen)/5% CO2 (carbon dioxide) humidified gas mixture for 1 hour.
Radiosensitization studies were performed on V79 cells in a manner similar to the acute toxicity experiments, except that the survival fraction was determined after a predetermined radiation dose. […] One Gy is equal to 100 rads, wherein one rad is the quantity of ionizing radiation that results in the absorption of 100 ergs of energy per gram of irradiated material. Hypoxia was maintained throughout irradiation. […] Sensitization enhancement ratios (SER) were determined at a 10% survival level. […] The plotted points in FIGS. 3 and 4 represent the mean of 2 or 3 replicate experiments.

Data set [3] is described as follows: Acute aerobic and hypoxic cytotoxicity (colony formation). The format is cell-based, Chinese hamster. The following applies: chinese hamster, aerobic v79 cells, aerobic, 1 hour, 37° C.; for IC50 at 1 h: V79 cells, 50% inhibition of clonogenicity. On the procedure: as §1
(§2) To determine the fraction of surviving cells, samples were removed, diluted and plated to provide 2×10^2 to 2×10^4 cells/well on 60 mm Linbro multi-well plates (Flow Laboratories, McLean, Virginia). The plates were incubated at 37° C. for 6 days, stained with crystal violet and examined for colony formation. Colonies of 50 cells or greater were counted. Each plotted point in FIGS. 1 and 2 represent the mean of three or four replicate experiments.

For data set [4], the system named is V79 Chinese hamster lung cells. The data set is described as above. The format is cell-based. Particulars: for pIC50: V79, 1 h, hypoxia, 50% inhibition of clonogenicity; for viability at 100 µM: 3.5 hours. As to the method:
as §1, §2

Another data set has as its system human Topo II. As to the kind of experiment: Topoisomerase II interaction (decatenation of kinetoplast DNA). The format is biochemical. Particulars: up to 1 mM. On the procedure: A Topo II assay kit (TopoGEN, Inc., Columbus, Ohio) also was used to assay the topoisomerase II--THNLA-1 interaction. […] Individual reaction mixtures were heated for 30 minutes at 37° C. on a heating block, and then 2 μl of a 10% SDS-proteinase K solution was added to each reaction mixture. The resulting reaction mixtures then were heated for an additional 30 minutes at 37° C. After addition of a 0.1 volume of loading buffer, the reaction mixtures were extracted with CHCl3 prior to submarine electrophoresis on a 1% agarose gel containing ethidium bromide (0.5 μg/ml).

The next data set relates to V79 cells. The experiment in a line: Chemosensitization to L-PAM or cis-DDP in V79 cells. The format is cell-based, Chinese hamster. Particulars: for chemosensitization to L-PAM or cis-DDP: V79 cells. As to the method:
L-PAM, also known as phenylalanine mustard and available from Sigma Chem. Co., St. Louis, Mo., first was dissolved in an ethanolic solution of HCl (0.5N). The ethanolic HCl solution was buffered with propylene glycol in a 1:9 ratio of ethanolic HCl solution to propylene glycol, and finally diluted 100 fold with suspension medium. cis-DDP, a platinum-based chemotherapeutic agent available from Sigma Chem. Co., St. Louis, Mo., was dissolved in water to a predetermined concentration.
Experiments using a simultaneous addition of the sensitizer and chemotherapeutic agent for 1 hour at 37° C. under aerobic conditions were also performed.
In all experiments, controls for the hypoxic cytotoxicity of the sensitizer and the toxicity of the chemotherapeutic alone were included. Survival curves were normalized for the hypoxic cytotoxicity of sensitizer in order to determine the dose modification factor (DMF), i.e., the ratio of chemotherapeutic agent concentrations required to reduce cell survival to a predetermined level (e.g., 0.5) alone or in combination with a sensitizer. Synergism between the chemotherapeutic agent and the chemosensitizer was determined using the fractional product concept which is applied in instances of independent action of drugs, or by isobologramic analysis. The results of the chemosensitization studies are illustrated in FIGS. 12-15.

Where [5] appears, read: Cricetulus griseus, V79 cells, 1 hour, 37° C.

pIC50: −log10 of the molar value. Where “and” joins values, the source holds several entries; their conditions need not be identical. Equal values may be shown once. Entries after “also recorded” stand apart in the source; their conditions may differ. Where a name gives a salt, the structure may show the parent alone. Read-outs that look alike come from different tables or passages of the source. Where only a bound is given, the exact number is not on record here.

For the compound `O=[N+]([O-])c1nccn1CCCNc1c2c(nc3ccccc13)CCSC2` [S-THNLA-1, 10-[3-(2-nitroimidazolyl)propylamino]-3,4-dihydro-1-H-thiopyrano[4,3-b]quinoline hydrochloride], in data set [1] (hydrochloride), the “Partition coefficient in octanol/water: PCo/w” value is 0.41 and 0.40. The EC (SER 1.6) in data set [2] (Cricetulus griseus, V79, 1 h, read-out: Hypoxic radiosensitizing potency: C1.6, concentration yielding an SER of 1.6, hypoxic V79 cells) was 40 to 45 µM; in data set [2] (Cricetulus griseus, V79, read-out: Intracellular concentration at C1.6: C1.6i, hypoxic radiosensitization, V79 cells (tables)), 932 µM; in data set [2] (concentration yielding an SER of 1.6, hypoxic V79 cells, hydrochloride, read-out: Hypoxic radiosensitizing potency: C1.6) it was 40 µM. For the same compound, the “maximum SER value” in data set [2] was “equal to OER”. Further, the “therapeutic index relative to NLA-1” value in data set [2] (in vitro ThI) is given as “better therapeutic index than NLA-1”. In addition, the “Therapeutic index (ThI): IC50/A,1h /C1.6” value in data set [2] (in vitro, V79 cells) is recorded as “about 15”. Further, the IC50 (usually the concentration needed to halve the response being measured) at 1 h in data set [3] is 580 µM. Moreover, the pIC50 – broadly, the IC50 on a negative log10 scale, so that one unit is a factor of ten – in data set [4] (setting [5]) is 4.17. Besides, the “Hypoxic selectivity (differential aerobic/hypoxic toxicity): IC50/A,1h /IC50/H,1h” value in data set [4] (V79 cells, 1 hour, 37° C.) is given as “about 9”. Besides, in the data set with human Topo II, the “inhibition of Topo II-induced decatenation of kinetoplast DNA” value was “did not inhibit the action of Topoisomerase II on kinetoplast DNA”. For the same compound, the “chemosensitization to L-PAM or cis-DDP” value with V79 cells is given as “strong chemosensitizers”.
As to `Cl.O=[N+]([O-])c1nccn1CCCNc1c2c(nc3ccccc13)CCCC2` [THNLA-1, 9-[3-(2-nitro-1-imidazolyl)propylamino]-1,2,3,4-tetrahydroacridine hydrochloride], the “Partition coefficient in octanol/water: PCo/w” value in data set [1] is reported as 0.14. The logP in data set [1] (read-out: Partition coefficient in octanol/water: PCo/w (converted)) is -0.854. In data set [2] (1 hour at 37° C. before irradiation, hypoxic), the “radiosensitization of hypoxic V79 cells” value is “Significant radiosensitization”. In addition, the EC (SER 1.6) was found to be 19 µM in data set [2] (Cricetulus griseus, 1 h, concentration yielding an SER of 1.6, hypoxic V79 cells, read-out: Hypoxic radiosensitizing potency: C1.6); 443 µM in data set [2] (Cricetulus griseus, hypoxic radiosensitization, V79 cells (tables), read-out: Intracellular concentration at C1.6: C1.6i); 443 µM in data set [2] (Cricetulus griseus, hypoxic radiosensitization, V79 cells, read-out: Intracellular concentration for an SER of 1.6: C1.6i). In data set [2] (V79 cells (hypoxic conditions), hydrochloride), the “radiosensitization when administered immediately after irradiation” value is reported as “radiosensitization also was not observed; also recorded: No radiosensitization was observed”. For the same compound, the “radiosensitization under aerobic conditions” value in data set [2] (V79 cells, aerobic) is “Radiosensitization was not observed”. For the same compound, the “radioprotection under aerobic conditions” value in data set [2] (aerobic) is on record as “no radioprotection occurred”. In addition, in data set [2], the “maximum SER value” worked out at 3.1. Also, the IC50 at 1 h in data set [3] is approximately 360 µM. Also, the IC90 at 1 h in data set [3] (read-out: concentration to achieve a 10% survival fraction, aerobic) was approximately 475 µM. Further, the negative-log IC50 (pIC50) in data set [4] (setting [5]) was approximately 4.48. Also, the IC90 in data set [4] (Cricetulus griseus, V79, hypoxic, 1 hour, 37° C., read-out: concentration to achieve a 10% survival fraction, hypoxic) is approximately 100 µM. Besides, the viability at 100 µM in data set [4] (V79, aerobic, read-out: survival fraction, aerobic) was approximately 50%; in data set [4] (V79, hypoxic, read-out: survival fraction, hypoxic) it was less than 0.002%. Moreover, the “inhibition of Topo II-induced decatenation of kinetoplast DNA” value with human Topo II (hydrochloride) is given as “does not inhibit the Topo II-induced decatenation of KDNA even at very high concentrations; also recorded: did not inhibit decatenation of kinetoplast DNA”. Further, the “DMF value of L-PAM at 0.5 survival fraction” value in the data set with V79 cells (10 μM THNLA-1, 2 hours hypoxic pretreatment, then L-PAM 1 hour aerobic) amounted to 3.2. For the same compound, the “DMF value of cis-DDP at 0.5 survival fraction” value in the data set with V79 cells (15 μM THNLA-1, 2 hours hypoxic pretreatment, then cis-DDP 1 hour aerobic) came out at 4.2. Further, in the data set with V79 cells (hydrochloride), the “chemosensitization to L-PAM or cis-DDP” value is recorded as “powerful potentiator of chemotherapeutic agent toxicity; also recorded: strong chemosensitizers”. Also, in the data set on V79 cells (aerobic exposure), the “potentiation of L-PAM or cis-DDP under aerobic conditions” value is listed as “no potentiation occurred”. Further, in the data set with V79 cells (cis-DDP or L-PAM combination, about 30% of the IC50/H,1h, hydrochloride), the “DMF compared with NLA-1” value is recorded as “slightly greater than the DMF value obtained using a combination including NLA-1; also recorded: significantly more efficacious chemosensitizer than NLA-1”. Also, the “interaction with L-PAM or cis-DDP” value in the data set on V79 cells (hypoxic pretreatment, isobologram and fractional product concept, hydrochloride) is listed as “synergistic interaction; also recorded: dramatic decrease in survival fraction; also recorded: unexpected synergistic effect”.
